Measured values taken from US12303845B2, “Method for crystallization of active pharmaceutical ingredients” (Nanoform Finland Oyj, priority 2023, dated 2025).

Legend:
[1] = Crystallization of amorphous nanosized API in aqueous polymer solution, polymorph/crystallinity by XRD; type: physicochemical; parameters: key to Polymorph: bulk = same as the API before conversion to amorphous nanoparticles
Method: XRPD measurements were carried out using the Malvern PANalytical Empyrean X-ray diffractometer equipped with a Cu Kα (1.54 Å) source, MultiCore optics and a solid-state PIXcel3D detector. By using Kapton tape the samples were attached onto aluminum or polycrystalline silicon sample holders. Dried slurries were measured without further sample preparation under Kapton tape and suspensions were filtered, dried, and filters were attached with double sided tape. The samples were measured in the reflection geometry in a spinning measurement stage. The measurement range was 5-40 (°2θ). The step size and time per step values were varied depending on the counts per second obtained.
Determination of crystallization of API nanoparticles was evaluated via kinetic study of suspension. Accordingly, XRD measurement was done for suspension in different time points.
Amorphous API nanoparticles (budesonide, ezetimibe, ceritinib, and apalutamide) were added as dry powders to aqueous polymer solutions. The mixtures were either • (i) mixed with a magnetic stirrer and ultrasonicated until API was completely surrounded by water (wetted). The stirring was continued for 16-24 h at ambient temperature or • (ii) blended with a metal spatula and allowed to stay at room temperature for 18-24 h.
The suspensions formed were analyzed after 18-24 h. SEM and XRD samples were prepared as described above.

[2] = Permeability measurements (μFlux); type: in vitro ADME; details: composition of the disclosure vs bulk ezetimibe, PAMPA membrane
Method: A μFlux instrument connected to the Rainbow instrument (Pion Inc UK Ltd, Forest Row, UK) was used to determine the passive permeability of API from different formulations. The suspensions were loaded to the donor chamber containing 10 mL of SGF (0.025 M HCl pH 1.6) and incubated for 15 min. Thereafter, the content of the donor chamber was converted to FaSSIF medium pH 6.5 by addition of 10 mL of FaSSIF concentrate media and stirring rate of 150 rpm. The receiver compartment contained 20 mL of PION acceptor buffer pH 7.4 with stirring rate of 150 rpm. The permeability was assessed across a gastrointestinal PAMPA membrane (Pion Inc UK Ltd, Forest Row, UK). The suspensions were loaded either at either 40 μg/mL for Ezetimibe or 30 μg/mL for Apalutamide using suspensions prepared at concentration of 5 mg/mL in 1 wt.-% PVPVA suspension vehicle. The temperature was set to 37° C. throughout the measurement. Incubation time was about 24 h. UV-Vis spectra were recorded at 30 s intervals at a wavelength of 293-320 nm using the Pion Rainbow Dynamic with either 10 mm tips for Ezetimibe or 5 mm tips for Apalutamide. API concentrations were calculated using second derivative to avoid interference of undissolved floating particles based on a standard curve (stock solution 5 mg/mL in ethanol). […]

[3] = SEM of crystallized suspensions and dried products (crystal size grade, particle size); type: physicochemical; parameters: key: 5 = nanocrystals; 1 = large crystals
Method: SEM images were captured using the Zeiss Sigma 300 VP SEM instruments. Samples were dispersed into water and filtered with 0.1 μm filter. Filters were dried, transferred to SEM sample holders, and coated with a 5 nm thick layer of platinum. Amorphous API nanoparticles (budesonide, ezetimibe, ceritinib, and apalutamide) were added as dry powders to aqueous polymer solutions. The mixtures were either • (i) mixed with a magnetic stirrer and ultrasonicated until API was completely surrounded by water (wetted). The stirring was continued for 16-24 h at ambient temperature or • (ii) blended with a metal spatula and allowed to stay at room temperature for 18-24 h. The suspensions formed were analyzed after 18-24 h. SEM and XRD samples were prepared as described above. Suspension comprising nanosized APIs prepared as shown above were dried in a vacuum desiccator overnight. The solid materials were grounded to produce powders. The powders were analyzed on XRD and SEM. The powders comprising nanosized APIs were used in the stability, permeability, and dissolution tests as described above.

[4] = HPMC 1 wt.-%, SLS 0.2 wt.-%, mAPI 25 mg/g
[5] = HPMC 1 wt.-%, no SLS, mAPI 25 mg/g
[6] = HPMC 2.5 wt.-%, SLS 0.2 wt.-%, mAPI 25 mg/g
[7] = HPMC 2.5 wt.-%, no SLS, mAPI 25 mg/g
[8] = HPMC 5 wt.-%, SLS 0.2 wt.-%, mAPI 25 mg/g
[9] = HPMC 5 wt.-%, no SLS, mAPI 25 mg/g
[10] = PVP K30 1 wt.-%, no SLS, mAPI 25 mg/g
[11] = PVP K30 2.5 wt.-%, no SLS, mAPI 25 mg/g
[12] = PVP K30 5 wt.-%, no SLS, mAPI 25 mg/g
[13] = PVPVA 1 wt.-%, SLS 0.2 wt.-%, mAPI 25 mg/g
[14] = PVPVA 1 wt.-%, no SLS, mAPI 25 mg/g polymer solution
[15] = PVPVA 2.5 wt.-%, SLS 0.2 wt.-%, mAPI 25 mg/g
[16] = PVPVA 2.5 wt.-%, no SLS, mAPI 25 mg/g
[17] = PVPVA 5 wt.-%, SLS 0.2 wt.-%, mAPI 25 mg/g
[18] = PVPVA 5 wt.-%, no SLS, mAPI 25 mg/g
[19] = PVPVA 15 wt.-%, no SLS, mAPI 150 mg/g
[20] = PVPVA 15 wt.-%, no SLS, mAPI 300 mg/g
[21] = PVPVA 20 wt.-%, no SLS, mAPI 100 mg/g
[22] = PVPVA 20 wt.-%, no SLS, mAPI 200 mg/g
[23] = PVPVA 20 wt.-%, no SLS, mAPI 400 mg/g
[24] = PVPVA 25 wt.-%, no SLS, mAPI 125 mg/g
[25] = PVPVA 25 wt.-%, no SLS, mAPI 250 mg/g
[26] = Poloxamer 407 1 wt.-%, no SLS, mAPI 25 mg/g
[27] = Poloxamer 407 2.5 wt.-%, no SLS, mAPI 25 mg/g
[28] = Poloxamer 407 5 wt.-%, no SLS, mAPI 25 mg/g

O=C1[C@H](CC[C@H](O)c2ccc(F)cc2)[C@@H](c2ccc(O)cc2)N1c1ccc(F)cc1 [Eze, ezetimibe]
Polymorph [1, 4]: bulk
Polymorph [1, 5]: hydrate
Polymorph [1, 6]: amorphous
Polymorph [1, 7]: hydrate
Polymorph [1, 8]: amorphous
Polymorph [1, 9]: hydrate
Polymorph [1, 10]: bulk
Polymorph [1, 11]: bulk
Polymorph [1, 12]: bulk
Polymorph [1, 13]: bulk
Polymorph [1, 14]: bulk
Polymorph [1, 15]: bulk
Polymorph [1, 16]: bulk
Polymorph [1, 17]: hydrate
Polymorph [1, 18]: bulk
Polymorph [1, 19]: hydrate
Polymorph [1, 20]: hydrate
Polymorph [1, 21]: hydrate
Polymorph [1, 22]: hydrate
Polymorph [1, 23]: hydrate
Polymorph [1, 24]: hydrate
Polymorph [1, 25]: hydrate
Polymorph [1, 26]: bulk
Polymorph [1, 27]: bulk
Polymorph [1, 28]: bulk
time from contacting until crystal formation is observed in XRD diffractograms ([1]; suspension in 20 wt.-% aq. PVPVA, API:polymer ratio 1:1): > 9 h
permeability versus bulk API [2]: significantly better
Grade (SEM, visual inspection) [3, 4]: 2
Grade (SEM, visual inspection) [3, 5]: 2
Grade (SEM, visual inspection) [3, 6]: 2
Grade (SEM, visual inspection) [3, 7]: 2
Grade (SEM, visual inspection) [3, 8]: 2
Grade (SEM, visual inspection) [3, 9]: 2
Grade (SEM, visual inspection) [3, 10]: 3
Grade (SEM, visual inspection) [3, 11]: 3
Grade (SEM, visual inspection) [3, 12]: 3
Grade (SEM, visual inspection) [3, 13]: 2
Grade (SEM, visual inspection) [3, 14]: 3
Grade (SEM, visual inspection) [3, 15]: 4
Grade (SEM, visual inspection) [3, 16]: 2
Grade (SEM, visual inspection) [3, 17]: 5
Grade (SEM, visual inspection) [3, 18]: 2
Grade (SEM, visual inspection) [3, 19]: 5
Grade (SEM, visual inspection) [3, 20]: 5
Grade (SEM, visual inspection) [3, 21]: 5
Grade (SEM, visual inspection) [3, 22]: 5
Grade (SEM, visual inspection) [3, 23]: 5
Grade (SEM, visual inspection) [3, 24]: 5
Grade (SEM, visual inspection) [3, 25]: 5
Grade (SEM, visual inspection) [3, 26]: 1
Grade (SEM, visual inspection) [3, 27]: 1
Grade (SEM, visual inspection) [3, 28]: 1
